Experimental findings from patent US20110183892A1 (priority 2007, published 2011) are described below.

The test system of one data set is HIV-1 strain LAI. The data set is described as follows: Limit-dilution titer of infectious virus with p24 antigen capture assay. Format: cell-based. To be noted: Jurkat E6-1, 250 μg/ml, days 4-10 post infection. The method, then: (A) Jurkat E6-1 cells were grown in RPMI-1640 media supplemented with 10% FBS. Cells were infected with HIV-1 (LAI) at an MOI of 0.01 in media containing gentamicin at 0, 50, 250, or 500 μg/ml. Infected or mock infected cells were maintained in the above media containing the corresponding concentration of gentamicin. Clarified viral supernatant was assayed for RT activity on days 2, 4, 6, 8, and 10 post infection. […] Results are from an average of 3 experiments with error bars corresponding to standard deviation values. (B) Clarified viral supernatants from days 4, 6, 8, and 10 above were used to perform limit-dilution assays in order to determine the level of infectious virus produced in untreated and gentamicin treated cells. A p24 antigen capture assay was used to detect virus. Results are reported as TCID50/ml vs. day post infection. The antigen capture assay was repeated with similar results while the RT activity assay was repeated twice with similar results.
Cells and viruses. Jurkat E6-1 cells (obtained through the ATCC) were cultured in RPMI-1640 supplemented with 10% fetal bovine serum at 37° C. and 5% CO2 according to the ATCC data sheet. HIV-1 strain LAI was obtained through the NIH AIDS Research and Reference Reagent Program.
HIV infection of Jurkat cells. All experiments were performed with Jurkat cells in 24-well plates and in duplicate. […]

The test system of the next data set is HIV-1 −1 PRF signal. Format: cell-based, human. To be noted: for stimulation of HIV-1 directed −1 PRF: 5-500 μg/ml; for dose dependence of HIV-1 mediated −1 PRF: Example 2.
In a further data set the target is HIV-1 RT (Human immunodeficiency virus type 1 group M subtype B, UniProt P04585). The data set is described as follows: Control experiments on HIV-1 RT activity.
In data set [1] the test system is endogenous yeast "Killer" virus. The data set can be described thus: Yeast Killer virus maintenance assay after serial passage. The data set is classed as cell-based. Conditions: serial passage every 24 h for eight days.
Data set [2] concerns SARS-CoV frameshift signal. Format: cell-based, human.
The test system of a further data set is Jurkat E6-1 cells. To be noted: Jurkat E6-1, 500 μg/ml.
In data set [3] the test system is M1 satellite virus dsRNA genome. The data set can be described thus: dsRNA extraction and TAE-agarose gel of Killer yeast cells. Format: cell-based. To be noted: gentamicin treated Killer− cells, ~10-times more RNA loaded than control.
[4] abbreviates: HeLa cells, 5, 25, 50, 250 and 500 ug/ml.
Setting [5] is: Jurkat cells, 5, 25, 50, 250 and 500 ug/ml.

Like-named read-outs stand apart in the source and are kept apart here.

As to gentamicin, the “infectious virus in cell-free supernatant” value in the data set on HIV-1 strain LAI was “no infectious virus was made”. The “HIV-1 directed −1 PRF at the concentration normally used in cell culture” value with HIV-1 −1 PRF signal (HeLa CD4+ and Jurkat cells, 50 μg/ml) is on record as “increased −1 PRF was observed”. Besides, the “stimulation of HIV-1 directed −1 PRF” value with HIV-1 −1 PRF signal (HeLa CD4+ cells) was “about 40%”; in the data set with HIV-1 −1 PRF signal (HeLa CD4+ cells, listed as Gentamicin), “up to 40%”; in the data set on HIV-1 −1 PRF signal (Jurkat cells) it was “about 40%”; with HIV-1 −1 PRF signal (Jurkat cells, listed as Gentamicin) it was “up to 40%”. Also, the “dose dependence of HIV-1 mediated −1 PRF” value in the data set on HIV-1 −1 PRF signal (setting [4]) and with HIV-1 −1 PRF signal (setting [5]) was “dose-dependently increased” throughout. The “effect on HIV-1 RT activity” value on HIV-1 RT is “did not affect HIV-1 RT activity”. The Killer phenotype maintenance result in data set [1] (50 μg/ml) and in data set [1] (500 μg/ml) was “rapid loss of the Killer phenotype” throughout. Besides, the “dose dependence of SARS-CoV mediated −1 PRF” value in data set [2] (setting [4]) and in data set [2] (setting [5]) was “dose-dependently increased” each time. The cell toxicity result in the data set on Jurkat E6-1 cells is listed as “Significant cell toxicity”; in the data set on Jurkat E6-1 cells (listed as Gentamicin) it was “significant cell toxicity”. In addition, in data set [3], the “presence of M1 dsRNA genome” value was “no longer present”.
